Laboratory results published in patent US5118682A, “p-Hydroxy phenone derivatives and the use thereof” (BASF Aktiengesellschaft, priority 1988, dated 1992).
Counter-ions that a name gives are not always drawn.

Assays:
[1] = test system: QT interval; assay: class III antiarrhythmic action in guinea-pigs after intravenous administration (increase in QT interval, ECG); type: in vivo, guinea-pigs (Pirbright white); details: i.v.; for Rel. action ED20 (D-sotalol)/ED20 (example): guinea-pigs, potency relative to D-sotalol = 1; for ED20: Cavia porcellus, iv, read-out: Increase in QT interval ED 20%
Experimental: The experimental animals are male and female Pirbright white guinea-pigs weighing from 300 to 500 g. They are anaesthetized with 1.5 g/kg urethane i.p. The substances are administered intravenously. The ECG conduction times and the heart rate are measured from a recording from extremity lead II. […] The criterion of a class III action is an increase in the QT interval compared with the values before administration of the substance. An increase in PQ and a large decrease in the heart rate serve as exclusion criteria.

[2] = test system: arrhythmias which are otherwise resistant to therapy, especially reentry arrhythmias; details: Circulation 68 (1983); Am. Heart J. 109 (1985); J. Clin. Pharmacol. 27 (1987); cited from earlier work
[3] = anaesthetized guinea-pigs (urethane 1.5 g/kg i.p.), ECG extremity lead II, 4 to 6 animals per dose, dose for 20% increase in QT interval, calculated from log dose-response

Compound: 3',4'-Dimethyl-4'-(2-(1-pyrrolidinyl)ethoxy)-4-methoxychalcone fumarate [Example 24]
- Increase in QT interval ED 20% [1, 3]: 0.95 mg/kg
- Rel. action ED20 (D-sotalol)/ED20 (example) [1]: 3.8

Compound: CC(C)NCC(O)c1ccc(NS(C)(=O)=O)cc1 (single isomer, unassigned) [D-sotalol, reference compound]
- ED20 [1, 3]: 3.6 mg/kg
- therapeutic advantage of class III antiarrhythmics reported in the literature [2]: acting against arrhythmias which are otherwise resistant to therapy

Compound: Cc1ccccc1/C=C/C(=O)c1cc(C)c(OCCN2CCCC2)c(C)c1 [Example 1, 3',5'-Dimethyl-4,-(2-(1-pyrrolidinyl)ethoxy)-2-methylchalcone tosylate]
- ED20 [1, 3]: 0.74 mg/kg
- Rel. action ED20 (D-sotalol)/ED20 (example) [1]: 4.9

Compound: Cc1ccccc1/C=C/C(=O)c1cc(C)c(OCCN2CCCCC2)c(C)c1.O=C(O)/C=C/C(=O)O [Example 2, 3',5'-Dimethyl-4'-(2-(1-piperidinyl)ethoxy)-2-methylchalcone fumarate]
- ED20 [1, 3]: 0.76 mg/kg
- Rel. action ED20 (D-sotalol)/ED20 (example) [1]: 4.7

Compound: CCN(CC)CCOc1c(C)cc(C(=O)/C=C/c2ccccc2C)cc1C.O=C(O)/C=C/C(=O)O [Example 3, 4'-(2-Diethylaminoethoxy)-3',5'-dimethyl-2-methylchalcone fumarate]
- ED20 [1, 3]: 0.65 mg/kg
- Rel. action ED20 (D-sotalol)/ED20 (example) [1]: 5.5

Compound: Cc1ccccc1/C=C/C(=O)c1cc(C)c(OCCCN2CCCC2)c(C)c1.O=C(O)/C=C/C(=O)O [Example 4, 3',5'-Dimethyl-4'-(3-(1-pyrrolidinyl)propoxy)-2-methylchalcon fumarate]
- ED20 [1, 3]: 0.89 mg/kg
- Rel. action ED20 (D-sotalol)/ED20 (example) [1]: 4.0

Compound: CCN(CC)CCOc1c(C)cc(C(=O)Cc2ccc(OC)cc2)cc1C [Example 10, 4'-(2-Diethylaminoethoxy)-3',5'-dimethyl-4-methoxydeoxybenzoin]
- ED20 [1, 3]: 1.31 mg/kg
- Rel. action ED20 (D-sotalol)/ED20 (example) [1]: 2.7

Compound: CCc1ccccc1C=CC(=O)c1cc(C)c(OCCN2CCCC2)c(C)c1 [Example 12, 3',5'-Dimethyl-4,-(2-(1-pyrrolidinyl)ethoxy)-2-ethylchalcone fumarate]
- ED20 [1, 3]: 0.74 mg/kg
- Rel. action ED20 (D-sotalol)/ED20 (example) [1]: 4.9

Compound: COc1ccccc1/C=C/C(=O)c1cc(C)c(OCCN2CCCC2)c(C)c1.O=C(O)/C=C/C(=O)O [Example 13, 3',5'-Dimethyl-4'-(2-(1-pyrrolidinyl)ethoxy)-2-methoxychalcone fumarate]
- ED20 [1, 3]: 0.67 mg/kg
- Rel. action ED20 (D-sotalol)/ED20 (example) [1]: 5.4

Compound: COc1ccc(C=CC(=O)c2cc(C)c(OCCN3CCCC3)c(C)c2)c(C)c1 [Example 15, 3',5'-Dimethyl-4'-(2-(1-pyrrolidinyl)ethoxy)-4-methoxy-2-methylchalconeoxalate]
- ED20 [1, 3]: 1.5 mg/kg
- Rel. action ED20 (D-sotalol)/ED20 (example) [1]: 2.4

Compound: COc1ccccc1/C=C/C(=O)c1cc(C)c(OCCN2CCCCC2)c(C)c1.Cl [Example 17, 3',5'-Dimethyl-4'-(2-(1-piperidinyl)ethoxy)-2-methoxychalcone hydrochloride]
- ED20 [1, 3]: 1.69 mg/kg
- Rel. action ED20 (D-sotalol)/ED20 (example) [1]: 2.1

Compound: CCc1ccccc1C=CC(=O)c1cc(C)c(OCCN2CCOCC2)c(C)c1 [Example 18, 3',5'-Dimethyl-4'-(2-(1-morpholinyl)ethoxy)-2-ethylchalcone hydrochloride]
- ED20 [1, 3]: 1.5 mg/kg
- Rel. action ED20 (D-sotalol)/ED20 (example) [1]: 2.4

Compound: COc1ccc(/C=C/C(=O)c2cc(C)c(OCCN3CCCCC3)c(C)c2)c(C)c1.O=C(O)/C=C/C(=O)O [Example 20, 3',5'-Dimethyl-4'-(2-(1-piperidinyl)ethoxy)-4-methoxy-2-methylchalcone fumarate]
- ED20 [1, 3]: 0.73 mg/kg
- Rel. action ED20 (D-sotalol)/ED20 (example) [1]: 4.9

Compound: Cc1ccccc1CCC(=O)c1cc(C)c(OCCN2CCCC2)c(C)c1 [Example 25, 3,5-Dimethyl-4-(2-(1-pyrrolidinyl)ethoxy)-3'-(2-tolyl)-propiophenone fumarate]
- ED20 [1, 3]: 0.79 mg/kg
- Rel. action ED20 (D-sotalol)/ED20 (example) [1]: 4.6

Compound: COc1ccccc1CCC(=O)c1cc(C)c(OCCN2CCCCC2)c(C)c1 [Example 27, 3,5-Dimethyl-3'-(2-methoxyphenyl)-4-(2-(piperidinyl)ethoxy)propiophenone fumarate]
- ED20 [1, 3]: 1.2 mg/kg
- Rel. action ED20 (D-sotalol)/ED20 (example) [1]: 3

Compound: CCc1ccccc1CCC(=O)c1cc(C)c(OCCN2CCCCC2)c(C)c1 [Example 32, 3,5-Dimethyl-3'-(2-ethylphenyl)-4-(2-(1-piperidinyl)ethoxy)propiophenone f umarate]
- ED20 [1, 3]: 1.62 mg/kg
- Rel. action ED20 (D-sotalol)/ED20 (example) [1]: 2.2

Compound: CCCCc1oc2ccccc2c1C(=O)c1cc(I)c(OCCN(CC)CC)c(I)c1 [amiodarone]
- therapeutic advantage of class III antiarrhythmics reported in the literature [2]: acting against arrhythmias which are otherwise resistant to therapy
